# US20070054348A1, “Methods of screening bifunctional molecules for modulated pharmacokinetic properties” (priority 2005, published 2007)
# Key:
# CYP3A4 = CYP3A4 (Homo sapiens, UniProt P08684)
# Description: Both the curcumin-FK506 and TZDM-SLF bifunctional compounds include a ligand to the pertidyl-prolyl isomerase FKBP. Therefore, FKBP12 was used in the assay as the PMP. A control was also performed with FK506 in the presence and absence of FKBP12.
# The coding sequence of human FKBP12 was subcloned into a pGEX2t vector. Bacteria transformed with this vector produce a fusion protein between FKBP12 and glutathione S-transferase (GST). FKBP12 is purified by standard methods and the GST tag enzymatically removed. Pure FKBP was flash-frozen, and stored at −80° C. at 10-100 micromolar in HEPES or phosphate buffer pH 7.0.
# The CYP3A4 compound and the green substrate VIVID® DBOMF (Invitrogen) were used in the assay with the recombinant human FKBP12 (rhFKBP12) and one of the bifunctional compounds. […] Increasing concentrations of the bifunctional compound, curcumin-FK506, were added to this system, either in the presence (open symbols) or absence (closed symbols) of rhFKBP12 at one micromolar.
# However, it has never been tested in an in vitro screen. Therefore, rhFKBP12 and FK506 were added to the VIVID assay. The open symbols are FK506+FKBP and the filled symbols are FK506 alone.
# [1] = stated as known; cited from earlier work
# COS-1 cells = experiment: Fluorescence microscopy of cellular distribution in cultured COS-1 cells; format: cell-based; details: FIG. 3
# Description: Cellular and tissue distribution of a bifunctional molecule consisting of a FKBP-binding group was also assessed. Such re-distribution is due to changes in the physicochemical characteristics of the new molecule and also is driven by specific, high-affinity interactions with FKBP. For example, the distribution of TZDM and TZDM-SLF were studied in cultured COS-1 cells (see FIG. 3). The intrinsic fluorescence of TZDM was used was a convenient handle for following drug distribution. […] Thus, sequestering FKBP-binding drugs both reduces accessibility to P450 enzymes and also alters the distribution of the bifunctional compounds.
# [2] = molecular target: T1, cytochrome p450 3A4 (CYP3A4) (Homo sapiens, UniProt P08684); experiment: Cytochrome P450 susceptibility assay using whole cells (FKBP-expressing CHO cells in the VIVID assay); format: in vitro ADME; details: FKBP-expressing Chinese hamster ovary cells (CHO) added, FIG. 4
# T1 construct: purchased Invitrogen
# Description: In addition to using rhFKBP12 or other recombinant proteins, whole cells were also tested using the cytochrome P450 assay platform. […] Unconjugated curcumin (triangle) was used as a negative control.
# Chain of CYP3A4 (P08684 whole entry): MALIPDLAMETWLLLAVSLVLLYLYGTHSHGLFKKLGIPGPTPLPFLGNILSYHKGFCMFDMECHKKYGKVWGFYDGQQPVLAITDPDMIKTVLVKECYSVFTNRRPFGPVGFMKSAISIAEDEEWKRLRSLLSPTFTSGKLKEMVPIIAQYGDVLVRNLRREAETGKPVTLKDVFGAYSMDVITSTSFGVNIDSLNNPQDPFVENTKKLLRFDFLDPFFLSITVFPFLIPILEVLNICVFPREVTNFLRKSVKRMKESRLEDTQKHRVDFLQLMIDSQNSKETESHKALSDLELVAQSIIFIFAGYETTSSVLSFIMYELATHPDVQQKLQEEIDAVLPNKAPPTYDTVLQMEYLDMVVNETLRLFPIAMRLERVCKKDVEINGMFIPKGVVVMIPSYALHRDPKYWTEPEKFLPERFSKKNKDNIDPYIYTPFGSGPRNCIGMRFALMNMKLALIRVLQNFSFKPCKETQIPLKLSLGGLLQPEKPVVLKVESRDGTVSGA
# T1 sequence (P08684 whole entry): as above
smiles,measurement,setting,value
C=CC[C@@H]1/C=C(\C)C[C@H](C)C[C@H](OC)[C@H]2O[C@@](O)(C(=O)C(=O)N3CCCC[C@H]3C(=O)O[C@H](/C(C)=C/[C@@H]3CC[C@@H](O)[C@H](OC)C3)[C@H](C)[C@@H](O)CC1=O)[C@H](C)C[C@@H]2OC [FK506],protection from metabolism by CYP on binding the protein partner FKBP,CYP3A4; human,protected from P450 metabolism by the presence of the protein partner
same,protection from degradation in whole animals,[1],known to be protected from degradation in whole animals
CN(C)c1ccc(-c2nc3ccc(I)cc3s2)cc1 [TZDM],cellular distribution by intrinsic fluorescence,COS-1 cells,resides in membranes
COc1cc(/C=C/C(=O)C(C(=O)/C=C/c2ccc(O)c(OC)c2)c2ccc(NC(=O)OCC[C@@H]3/C=C(\C)C[C@H](C)C[C@H](OC)[C@H]4O[C@@](O)(C(=O)C(=O)N5CCCC[C@H]5C(=O)OC(/C(C)=C/[C@@H]5CC[C@@H](O)[C@H](OC)C5)[C@H](C)C(O)CC3=O)[C@H](C)C[C@@H]4OC)cc2)ccc1O (stereo partly drawn) [curcumin-FK506],fluorescence of the reaction in the presence of rhFKBP12 compared to the reaction lacking rhFKBP12,CYP3A4,higher
same,protection from P450 metabolism by addition of FKBP-expressing cells,[2],protected by addition of the FKBP-expressing cells
COc1cc(/C=C/C(=O)CC(=O)/C=C/c2ccc(O)c(OC)c2)ccc1O [curcumin],protection from P450 metabolism by addition of FKBP-expressing cells,[2],less protected
